Read-outs that look alike come from different tables or passages of the source.

We go through eleven compounds from patent US4056626A, “Pharmaceutical composition containing benzofuran derivative” (Kakenyaku Kako Co., Ltd., priority 1971, dated 1977).

The nature of data set [1]: in vivo. Conditions: mouse, iv.
Data set [2] relates to isoproterenol antagonism concerning myocardial contractile force and heart rate in isolated guinea-pig atria. Kind of data set: isoproterenol antagonism in isolated guinea-pig atria. Conditions: for Inhibition of increase in heart rate ED 50 / Inhibition of increase in myocardial contractile force ED 50: 37° C., isoproterenol 1 × 10^-8 g./ml., 50% inhibition; for Inhibition of increase in heart rate, relative activity / Inhibition of increase in myocardial contractile force, relative activity: activity of Propranolol is 1. The protocol:
Isolated guinea-pig atrium was mounted in a chamber containing Ringer-Lockesolution (37° C.), through which a mixed gas of 95% O2 and 5% CO2 was continuously bubbled. Isoproterenol was added to the solution at a concentration of 1 × 10^-^8 g./ml.

Data set [3] concerns isoproterenol antagonism concerning myocardial contractile force, heart rate and diastolic blood pressure. In words: isoproterenol antagonism in anesthetized dogs. The class given is in vivo. Conditions: for ED50: Canis lupus familiaris, iv; for Inhibition of decrease in diastolic blood pressure, relative activity / Inhibition of increase in heart rate, relative activity / Inhibition of increase in myocardial contractile force, relative activity: activity of Propranolol is 1. The protocol: Male and female dogs weighing 9 kg. to 20 kg. were employed. The dogs were anesthetized with barbital sodium (30 mg./kg.) given intraperitoneally. The compounds to be tested and isoproterenol were administered in femoral vein through a canula.
The maximum increase was adopted as the increase in myocardial contractile force. The increase after 1 minute from the administration of isoproterenol was adopted as the increase in heart rate. The maximum decrease was adopted as the decrease in diastolic blood pressure. Then, the compounds to be tested were administered in a dose of 0.01 to 100 μg./kg. After an interval of 2 minutes, isoproterenol was again administered in a dose of 0.3 μg./kg. After the second administration of isoproterenol, the maximum increase in myocardial contractile force, the increase after 1 minute from the administration of isoproterenol in heart rate and the maximum decrease in diastolic blood pressure were again determined.

The mark [4] stands for this setting: anesthetized dogs, femoral vein, isoproterenol 0.3 μg./kg., 50% inhibition, read-out: Inhibition of decrease in diastolic blood pressure ED50.
The mark [5] stands for this setting: anesthetized dogs, femoral vein, isoproterenol 0.3 μg./kg., 50% inhibition, read-out: Inhibition of increase in heart rate ED50.
Where [6] appears, read: anesthetized dogs, femoral vein, isoproterenol 0.3 μg./kg., 50% inhibition, read-out: Inhibition of increase in myocardial contractile force ED50.

`CC(=NC(C)C)c1cc2cccc(OCC(O)CNC(C)C)c2o1` (stereo not drawn) [Compound No. 1, 2-(1-isopropyliminoethyl)-7-(2-hydroxy-3-isopropylaminopropoxy)benzofuran] returned an LD50 at 24 h in data set [1] of 65000 to 70000 µg/kg. Also, in data set [2], the “Inhibition of increase in heart rate ED 50” value is 0.014 µg/mL; the “Inhibition of increase in myocardial contractile force ED 50” value was 0.0017 µg/mL; the “Inhibition of increase in heart rate, relative activity” value worked out at 7.1; the “Inhibition of increase in myocardial contractile force, relative activity” value was 5.9. The 50% effective dose (ED50) in data set [3] (setting [4]) stood at 0.3 µg/kg. For the same compound, in data set [3] (setting [5]), the median effective dose (ED50) was 0.42 µg/kg. For the same compound, in data set [3] (setting [6]), the median effective dose (ED50) was 0.6 µg/kg. For the same compound, in data set [3] (anesthetized dogs), the “Inhibition of decrease in diastolic blood pressure, relative activity” value (from here on “Inhibition of decrease … relative activity”) stood at 3.1; the “Inhibition of increase in heart rate, relative activity” value is 25.0; the “Inhibition of increase in myocardial contractile force, relative activity” value worked out at 15.9.
`CC(=O)c1cc2c(OCC(O)CNC(C)(C)C)cccc2o1` (stereo not drawn) [Compound No. 2, 2-acetyl-4-(2-hydroxy-3-tert.-butylaminopropoxy)benzofuran] registered an LD50 at 24 h in data set [1] of 35000 to 40000 µg/kg. For the same compound, in data set [2], the “Inhibition of increase in heart rate ED 50” value stood at 0.045 µg/mL; the “Inhibition of increase in myocardial contractile force ED 50” value was 0.017 µg/mL; the “Inhibition of increase in heart rate, relative activity” value came to 2.2; the “Inhibition of increase in myocardial contractile force, relative activity” value came to 0.6. In addition, the ED50 in data set [3] (setting [4]) amounted to 0.92 µg/kg. The ED50 in data set [3] (setting [5]) was 35.2 µg/kg. Besides, in data set [3] (setting [6]), the ED50 stood at 8.62 µg/kg. In data set [3] (anesthetized dogs), the “Inhibition of decrease … relative activity” value is recorded as 1.0; the “Inhibition of increase in heart rate, relative activity” value worked out at 0.3; the “Inhibition of increase in myocardial contractile force, relative activity” value was 1.1.
In the case of `CC(=O)c1cc2cccc(OCC(O)CNC(C)C)c2o1` (stereo not drawn) [Compound No. 3, 2-acetyl-7-(2-hydroxy-3-isopropylaminopropoxy)benzofuran], the median lethal dose (LD50) at 24 h in data set [1] is 100000 to 105000 µg/kg. Besides, in data set [2], the “Inhibition of increase in heart rate ED 50” value was determined as 0.04 µg/mL; the “Inhibition of increase in myocardial contractile force ED 50” value stood at 0.005 µg/mL; the “Inhibition of increase in heart rate, relative activity” value is on record as 2.5; the “Inhibition of increase in myocardial contractile force, relative activity” value is 2.0. In data set [3] (setting [4]), the 50% effective dose (ED50) was 0.18 µg/kg. For the same compound, in data set [3] (setting [5]), the ED50 came out at 0.52 µg/kg. In data set [3] (setting [6]), the ED50 came out at 3.4 µg/kg. Besides, in data set [3] (anesthetized dogs), the “Inhibition of decrease … relative activity” value is 5.3; the “Inhibition of increase in heart rate, relative activity” value is on record as 21.0; the “Inhibition of increase in myocardial contractile force, relative activity” value was 2.8.
In data set [1], `CC(=O)c1cc2cccc(OCC(O)CNC(C)(C)C)c2o1` (stereo not drawn) [Compound No. 4, 2-acetyl-7-(2-hydroxy-3-tert.-butylaminopropoxy)benzofuran] gave an LD50 at 24 h of 45000 to 55000 µg/kg. Besides, in data set [2], the “Inhibition of increase in heart rate ED 50” value was 0.033 µg/mL; the “Inhibition of increase in myocardial contractile force ED 50” value turned out to be 0.004 µg/mL; the “Inhibition of increase in heart rate, relative activity” value was found to be 3.0; the “Inhibition of increase in myocardial contractile force, relative activity” value is 2.5. Also, the ED50 in data set [3] (setting [4]) is 0.72 µg/kg. In addition, the ED50 in data set [3] (setting [5]) was 3.5 µg/kg. In addition, in data set [3] (setting [6]), the ED50 was 6.33 µg/kg. Moreover, in data set [3] (anesthetized dogs), the “Inhibition of decrease … relative activity” value worked out at 1.3; the “Inhibition of increase in heart rate, relative activity” value is recorded as 3.0; the “Inhibition of increase in myocardial contractile force, relative activity” value was determined as 1.5.
`CC(=NC(C)C)c1cc2c(OCC(O)CNC(C)C)cccc2o1` (stereo not drawn) [Compound No. 6, 2-(1-isopropyliminoethyl)-4-(2-hydroxy-3-isopropylaminopropoxy)benzofuran]: the LD50 at 24 h in data set [1] was in the range of 45000 to 50000 µg/kg. For the same compound, in data set [2], the “Inhibition of increase in heart rate ED 50” value was found to be 0.014 µg/mL; the “Inhibition of increase in myocardial contractile force ED 50” value was 0.008 µg/mL; the “Inhibition of increase in heart rate, relative activity” value was 7.0; the “Inhibition of increase in myocardial contractile force, relative activity” value is recorded as 1.3. Moreover, the ED50 in data set [3] (setting [5]) turned out to be 0.21 µg/kg. The ED50 in data set [3] (setting [6]) came out at 5.93 µg/kg. Besides, in data set [3] (anesthetized dogs), the “Inhibition of decrease … relative activity” value is reported as 30.2; the “Inhibition of increase in heart rate, relative activity” value is given as 50.0; the “Inhibition of increase in myocardial contractile force, relative activity” value is on record as 1.6.
For `CCC(C)NCC(O)COc1cccc2cc(C(C)=O)oc12` (stereo not drawn) [Compound No. 7, 2-acetyl-7-(2-hydroxy-3-sec.-butylaminopropoxy)benzofuran], the LD50 at 24 h in data set [1] fell in the range of 75000 to 80000 µg/kg. In data set [2], the “Inhibition of increase in heart rate ED 50” value was 0.067 µg/mL; the “Inhibition of increase in myocardial contractile force ED 50” value amounted to 0.0048 µg/mL; the “Inhibition of increase in heart rate, relative activity” value is 1.5; the “Inhibition of increase in myocardial contractile force, relative activity” value was determined as 2.0. In data set [3] (setting [4]), the ED50 was found to be 2.35 µg/kg. Besides, the ED50 in data set [3] (setting [5]) was found to be 7.07 µg/kg. In data set [3] (setting [6]), the ED50 was 5.59 µg/kg. For the same compound, in data set [3] (anesthetized dogs), the “Inhibition of decrease … relative activity” value was 0.4; the “Inhibition of increase in heart rate, relative activity” value is listed as 1.5; the “Inhibition of increase in myocardial contractile force, relative activity” value stood at 1.7.
With `CCc1cc2c(C(C)=O)ccc(OCC(O)CNC(C)C)c2o1` (stereo not drawn) [Compound No. 8, 2-ethyl-4-acetyl-7-(2-hydroxy-3-isopropylaminopropoxy)benzofuran], in data set [1], the median lethal dose (LD50) at 24 h was 120000 to 125000 µg/kg. Besides, in data set [2], the “Inhibition of increase in heart rate ED 50” value is 0.053 µg/mL; the “Inhibition of increase in myocardial contractile force ED 50” value turned out to be 0.0091 µg/mL; the “Inhibition of increase in heart rate, relative activity” value stood at 1.9; the “Inhibition of increase in myocardial contractile force, relative activity” value stood at 1.1. Further, in data set [3] (setting [4]), the ED50 stood at 1.9 µg/kg. The median effective dose (ED50) in data set [3] (setting [5]) is 0.3 µg/kg. Moreover, the ED50 in data set [3] (setting [6]) amounted to 6.4 µg/kg. For the same compound, in data set [3] (anesthetized dogs), the “Inhibition of decrease … relative activity” value is 0.5; the “Inhibition of increase in heart rate, relative activity” value is listed as 35.0; the “Inhibition of increase in myocardial contractile force, relative activity” value is recorded as 1.5.
`CCC(C)N=C(C)c1cc2cccc(OCC(O)CNC(C)CC)c2o1` (stereo not drawn) [Compound No. 9, 2-(1-sec.-butyliminoethyl)-7-(2-hydroxy-3-sec.-butylaminopropoxy)benzofuran] came in with an LD50 at 24 h in data set [1] of 75000 to 80000 µg/kg. In data set [2], the “Inhibition of increase in heart rate ED 50” value came to 0.06 µg/mL; the “Inhibition of increase in myocardial contractile force ED 50” value was found to be 0.004 µg/mL; the “Inhibition of increase in heart rate, relative activity” value was 1.6; the “Inhibition of increase in myocardial contractile force, relative activity” value amounted to 2.5. For the same compound, the ED50 in data set [3] (setting [4]) turned out to be 0.16 µg/kg. Besides, the ED50 in data set [3] (setting [5]) is 0.53 µg/kg. Moreover, the ED50 in data set [3] (setting [6]) was 0.73 µg/kg. In data set [3] (anesthetized dogs), the “Inhibition of decrease … relative activity” value amounted to 6.0; the “Inhibition of increase in heart rate, relative activity” value stood at 20.0; the “Inhibition of increase in myocardial contractile force, relative activity” value stood at 13.1.
For the compound `CCC(C)N=C(C)c1cc2c(OCC(O)CNC(C)CC)cccc2o1` (stereo not drawn) [Compound No. 10, 2-(1-sec.-butyliminoethyl)-4-(2-hydroxy-3-sec.-butylaminopropoxy)benzofuran], the LD50 at 24 h in data set [1] fell in the range of 60000 to 65000 µg/kg. Besides, in data set [2], the “Inhibition of increase in heart rate ED 50” value was 0.04 µg/mL; the “Inhibition of increase in myocardial contractile force ED 50” value was found to be 0.0059 µg/mL; the “Inhibition of increase in heart rate, relative activity” value was determined as 2.5; the “Inhibition of increase in myocardial contractile force, relative activity” value was 1.7. For the same compound, the ED50 in data set [3] (setting [5]) stood at 0.21 µg/kg. Moreover, the ED50 in data set [3] (setting [6]) was determined as 3.95 µg/kg. In addition, in data set [3] (anesthetized dogs), the “Inhibition of decrease … relative activity” value is 23.5; the “Inhibition of increase in heart rate, relative activity” value came to 50.0; the “Inhibition of increase in myocardial contractile force, relative activity” value is given as 2.4.
As for `CC(C)NCC(O)COc1cccc2ccccc12` (stereo not drawn) [Propranolol, reference compound], the ED50 was 0.94 µg/kg in data set [3] (read-out: Inhibition of decrease in diastolic blood pressure ED50), 10.6 µg/kg in data set [3] (read-out: Inhibition of increase in heart rate ED50) and 9.5 µg/kg in data set [3] (read-out: Inhibition of increase in myocardial contractile force ED50).
`CCOC(=O)c1cc2cccc(OCC(O)CNC(C)C)c2o1` (stereo not drawn) [compound 5, 2-carbethoxy-7-(2-hydroxy-3-isopropylaminopropoxy)benzofuran] gave a 50% lethal dose (LD50) at 24 h in data set [1] of 50000 to 55000 µg/kg. In data set [2], the “Inhibition of increase in heart rate ED 50” value was 0.029 µg/mL; the “Inhibition of increase in myocardial contractile force ED 50” value amounted to 0.0055 µg/mL; the “Inhibition of increase in heart rate, relative activity” value came out at 3.5; the “Inhibition of increase in myocardial contractile force, relative activity” value came out at 1.8. The ED50 in data set [3] (setting [4]) was 1.57 µg/kg. Further, the ED50 in data set [3] (setting [5]) was 0.21 µg/kg. Further, the ED50 in data set [3] (setting [6]) was 9.5 µg/kg. Further, in data set [3] (anesthetized dogs), the “Inhibition of decrease … relative activity” value was 0.6; the “Inhibition of increase in heart rate, relative activity” value is on record as 50.0; the “Inhibition of increase in myocardial contractile force, relative activity” value worked out at 1.0.

The term LD50 denotes the dose at which mortality reaches 50%. A lower LD50 goes with a more toxic substance. As a reminder, the ED50 is the dose at which the effect has come halfway, by size or by number of responders.
